Experimental data from patent US11485751B2, “Apramycin derivatives” (WAYNE STATE UNIVERSITY, priority 2017, dated 2022).
Converted amounts (≈) assume the structure as drawn. Where two headings read alike, the source gives them in different places.

What was measured:
isolates carrying apmA = assay: MIC broth microdilution, apmA; assay type: cell-based; conditions: for MIC: apmA resistance gene
Method in brief: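 MICs (μg/ml) were determined by CLSI M07-A10 broth microdilution against apmA-carrying clinical isolates from the Institute of Medical Microbiology, University of Zurich.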

[1] = test system: AG042 MRSA AAC(6′)-I ANT(4′)-I APH(2′); assay: Antibacterial activity, clinical isolate AG042; assay type: cell-based; design: unit not given here
Method in brief: (§1)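 MIC values were determined by broth microdilution following the CLSI standard method for dilution susceptibility testing of aerobically growing bacteria.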

AG055 E. coli WT = assay: Antibacterial activity, clinical isolate AG055; assay type: cell-based; design: unit not given here
Method in brief: as §1

[2] = test system: AG215, Klebsiella pneumonia; assay: MIC reference strain AG215; assay type: cell-based; conditions: Klebsiella pneumoniae, reference strain; read-out: MIC AG215 K. pneumonia
Method in brief: (§2)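 MICs were determined by broth microdilution following CLSI guidelines for aerobically growing bacteria.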

WT clinical isolates = assay: MIC broth microdilution, WT; assay type: cell-based; conditions: read-out: MIC WT, clinical isolates, IMM Univ. Zurich; wild type
Method in brief: (§3)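 MICs obtained by broth microdilution following CLSI M07-A10, tested against clinical isolates from the Institute of Medical Microbiology, Univ. Zurich; values in μg/ml.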

AG001 E. coli WT = assay: Antibacterial activity, clinical isolate AG001; assay type: cell-based; design: unit not given here
Method in brief: as §1

AG038 MRSA = assay: Antibacterial activity, clinical isolate AG038; assay type: cell-based; design: unit not given here
Method in brief: as §1

[3] = test system: AG039 MRSA AAC(6′)-I ANT(4′)-I; assay: Antibacterial activity, clinical isolate AG039; assay type: cell-based
Method in brief: as §1

AG031 P. aer. APH(3′)-II = assay: Antibacterial activity, clinical isolate AG031; assay type: cell-based; design: unit not given here
Method in brief: as §1

[4] = test system: AG212, Escherichia coli ATCC25922; assay: MIC reference strain AG212; assay type: cell-based; conditions: Escherichia coli; reference strain ATCC25922; read-out: MIC AG212 E. coli
Method in brief: as §2

ATCC19977 M. abcessus = assay: MIC reference strain ATCC19977; assay type: cell-based; conditions: read-out: MIC ATCC19977 M. abcessus
Method in brief: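 Values are minimal inhibitory concentrations, obtained by serial dilution of compound in broth according to CLSI guidance for aerobes.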

[5] = test system: AG225, Acinetobacter baumannii pittii; assay: MIC reference strain AG225; assay type: cell-based; conditions: Acinetobacter baumannii, reference strain; read-out: MIC AG225 A. baumannii
Method in brief: as §2

[6] = test system: Engineered E. coli pH426 rmtC; assay: Activity against G1405-methylated 16S-rRNA, E. coli pH426 rmtC; assay type: cell-based
Method in brief: (§4)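 Read-out is the minimal inhibitory concentration, obtained in broth microdilution run according to CLSI guidelines (M07-A10).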

AG032 P. aer. APH(3′)-II = assay: Antibacterial activity, clinical isolate AG032; assay type: cell-based; design: unit not given here
Method in brief: as §1

[7] = test system: AG220, Pseudomonas aeruginosa ATCC27853; assay: MIC reference strain AG220; assay type: cell-based; conditions: Pseudomonas aeruginosa, ATCC27853, reference strain ATCC27853; read-out: MIC AG220 P. aeruginosa
Method in brief: as §2

AG173 E. coli AAC(3)-IV = assay: Antibacterial activity, clinical isolate AG173; assay type: cell-based
Method in brief: as §1

bacterial ribosomes = assay: in-vitro translation assay, bacterial ribosomes; assay type: biochemical
Method in brief: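 Inhibitory potency was determined as IC50 in in-vitro translation systems based on bacterial ribosomes, human chimeric (mitochondrial-type) ribosomes or rabbit reticulocyte (cytosolic) ribosomes.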

AG003 E. coli AAC(3)-II = assay: Antibacterial activity, clinical isolate AG003; assay type: cell-based
Method in brief: as §1

[8] = test system: human mitochondrial ribosomes; assay: in-vitro translation assay, human mitochondrial (human chimeric) ribosomes; assay type: biochemical
Method in brief: (§5)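 Each ribosome preparation (bacterial, human chimeric as the mitochondrial model, rabbit reticulocyte as the cytosolic model) drives in-vitro translation with the test compound present. Inhibition of translation gives the IC50.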

[9] = test system: human cytosolic ribosomes; assay: in-vitro translation assay, human cytosolic ribosomes; assay type: biochemical
Method in brief: as §5

[10] = test system: AG290, Enterobacter cloacae; assay: MIC reference strain AG290; assay type: cell-based; conditions: Enterobacter cloacae; reference strain; read-out: MIC AG290 E. cloacae
Method in brief: as §2

[11] = test system: AG033 P. aer. APH(3′)-II AAC(6′)-I; assay: Antibacterial activity, clinical isolate AG033; assay type: cell-based; design: unit not given here
Method in brief: as §1

[12] = test system: clinical isolates carrying AAC(3)-IV; assay: MIC broth microdilution, AAC(3)-IV; assay type: cell-based; conditions: clinical isolates, IMM Univ. Zurich; AAC(3)-IV; read-out: MIC AAC(3)-IV
Method in brief: as §3

[13] = test system: Engineered E. coli pH430 WT; assay: Activity, engineered E. coli pH430 WT; assay type: cell-based; conditions: wild type
Method in brief: as §4

[14] = test system: Engineered E. coli pH425 rmtB; assay: Activity against G1405-methylated 16S-rRNA, E. coli pH425 rmtB; assay type: cell-based
Method in brief: as §4

[15] = test system: Engineered E. coli pH424 armA; assay: Activity against G1405-methylated 16S-rRNA, E. coli pH424 armA; assay type: cell-based
Method in brief: as §4

[16] = test system: Engineered E. coli pH427 rmtF; assay: Activity against G1405-methylated 16S-rRNA, E. coli pH427 rmtF; assay type: cell-based
Method in brief: as §4

N. gonorrhoeae = assay: Disk diffusion N. gonorrhoeae; assay type: cell-based
AG163 E. coli APH(3′)-I = assay: Antibacterial activity, clinical isolate AG163; assay type: cell-based
Method in brief: as §1

[17] = test system: Engineered E. coli AG103 armA; assay: Activity against G1405-methylated 16S-rRNA, E. coli AG103 armA; assay type: cell-based
Method in brief: as §4

eukaryotic ribosomes = assay: in-vitro translation assays, bacterial versus eukaryotic ribosomes; assay type: biochemical
Description: IC50 values for bacterial, human chimeric, and rabbit reticulocyte ribosomes have been determined by in-vitro translation assays as described previously (Proc. Nat. Ac. Sci USA 2012, 109(27):10984-10989).

Compound	MIC (isolates carrying apmA) [µg/mL]	Antibacterial activity AG042 MRSA AAC(6′)-I ANT(4′)-I APH(2′) [1]	Antibacterial activity AG055 E. coli WT (AG055 E. coli WT)	MIC [2] [µg/mL]	MIC (WT clinical isolates) [µg/mL]	Antibacterial activity AG001 E. coli WT (AG001 E. coli WT)	Antibacterial activity AG038 MRSA (AG038 MRSA)	Antibacterial activity AG039 MRSA AAC(6′)-I ANT(4′)-I [3]	Antibacterial activity AG031 P. aer. APH(3′)-II (AG031 P. aer. APH(3′)-II)	MIC [4] [µg/mL]	MIC [5] [µg/mL]	Activity E. coli pH426 rmtC [6]	Antibacterial activity AG032 P. aer. APH(3′)-II (AG032 P. aer. APH(3′)-II)	MIC [7] [µg/mL]	Antibacterial activity AG173 E. coli AAC(3)-IV (AG173 E. coli AAC(3)-IV)	IC50 (bacterial ribosomes) [µM]	Antibacterial activity AG003 E. coli AAC(3)-II (AG003 E. coli AAC(3)-II)	IC50 [8] [µM]	IC50 [9] [µM]	MIC [10] [µg/mL]	other results
CNC1C(OC2OC(CO)C(N)C(O)C2O)OC2CC(N)C(OC3C(N)CC(N)C(O)C3O)OC2C1O (stereo not drawn) [DC161, 5-Epi-apramycin]	2 (≈ 3.71 µM)	2-4	4	1	2 (≈ 3.71 µM)	4	4	4	4	2	2	2	4	2	64	0.05	4-8	20	17	2	circumvention of the resistance mechanism apmA (isolates carrying apmA): circumvent the resistance mechanism apmA; MIC (ATCC19977 M. abcessus; reference strain): 0.5 µg/mL (≈ 0.927 µM); Antibacterial activity AG033 P. aer. APH(3′)-II AAC(6′)-I [11]: 8; MIC [12]: > 32 µg/mL; Activity E. coli pH430 WT [13]: 2; Activity E. coli pH425 rmtB [14]: 2; Activity E. coli pH424 armA [15]: 2; Activity E. coli pH427 rmtF [16]: 2; Disk diffusion 25 nmol N. gonorrhoeae (N. gonorrhoeae): 10 mm
CNC1C(OC2OC(CO)C(N)C(O)C2O)OC2CC(N)C(OC3C(N)CC(N)C(OCCO)C3O)OC2C1O (centres unmarked) [DC167, 6-O-(2-Hydroxyethyl)-apramycin]	> 64	64	16	4	8 (≈ 13.7 µM)	16	16-32	16-32	32-64	16	16	16	32-64	32	>128	0.18	16	379	382	8	Antibacterial activity AG163 E. coli APH(3′)-I (AG163 E. coli APH(3′)-I): 8-16; MIC (ATCC19977 M. abcessus): 2 µg/mL (≈ 3.43 µM); Activity E. coli AG103 armA [17]: 4; target specificity for bacterial versus human rRNA (eukaryotic ribosomes): increased target specificity; Antibacterial activity AG033 P. aer. APH(3′)-II AAC(6′)-I [11]: 64-128; MIC [12]: > 32 µg/mL; Activity E. coli pH430 WT [13]: 8; Activity E. coli pH425 rmtB [14]: 16; Activity E. coli pH424 armA [15]: 8; Activity E. coli pH427 rmtF [16]: 16
